Results: ChEMBL document CHEMBL1909046, “DrugMatrix in vitro pharmacology data”

Tests used:
[1] = target: T1, Amine oxidase [flavin-containing] A (Homo sapiens, UniProt P21397); assay: DRUGMATRIX: Monoamine Oxidase MAO-A enzyme inhibition (substrate: Kynuramine); parameters: species or system BTI-TN-5B1-4; conditions: Not Active = under 50% inhibition at 10 µM
T1 sequence (P21397 whole entry): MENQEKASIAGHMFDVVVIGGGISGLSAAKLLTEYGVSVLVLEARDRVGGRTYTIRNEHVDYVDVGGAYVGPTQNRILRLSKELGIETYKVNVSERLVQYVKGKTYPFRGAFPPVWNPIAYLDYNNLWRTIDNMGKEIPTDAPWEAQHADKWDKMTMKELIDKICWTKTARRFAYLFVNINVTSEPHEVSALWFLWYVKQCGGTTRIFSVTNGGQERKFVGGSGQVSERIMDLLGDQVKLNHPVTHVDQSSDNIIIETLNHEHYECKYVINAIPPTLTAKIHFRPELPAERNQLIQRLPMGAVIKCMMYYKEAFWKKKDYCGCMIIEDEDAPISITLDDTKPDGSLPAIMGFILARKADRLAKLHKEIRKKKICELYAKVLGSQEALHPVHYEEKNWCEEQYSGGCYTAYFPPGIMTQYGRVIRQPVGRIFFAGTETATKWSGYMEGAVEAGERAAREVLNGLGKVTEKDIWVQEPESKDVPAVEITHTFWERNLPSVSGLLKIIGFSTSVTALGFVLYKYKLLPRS

[2] = target: T2, Cholecystokinin receptor type A (Homo sapiens, UniProt P32238); format: cell membranes, Membrane; conditions: 1321-n1; also: in other assays of this panel Not Active means under 50% inhibition at 10 µM
T2 sequence (P32238 whole entry): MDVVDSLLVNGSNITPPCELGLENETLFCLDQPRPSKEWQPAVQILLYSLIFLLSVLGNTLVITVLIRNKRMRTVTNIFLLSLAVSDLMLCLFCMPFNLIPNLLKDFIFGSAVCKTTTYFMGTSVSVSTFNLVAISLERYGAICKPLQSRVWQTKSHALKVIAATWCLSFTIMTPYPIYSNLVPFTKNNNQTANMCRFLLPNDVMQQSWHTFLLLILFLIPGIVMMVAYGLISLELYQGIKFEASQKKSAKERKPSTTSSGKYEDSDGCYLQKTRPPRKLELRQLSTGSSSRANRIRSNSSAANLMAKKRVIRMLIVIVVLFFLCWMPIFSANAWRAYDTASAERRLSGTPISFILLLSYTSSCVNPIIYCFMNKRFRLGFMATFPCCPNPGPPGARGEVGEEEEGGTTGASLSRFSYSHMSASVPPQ

[3] = target: Sodium-dependent noradrenaline transporter (Homo sapiens, UniProt P23975); assay: DRUGMATRIX: Norepinephrine Transporter radioligand binding (ligand: [125I] RTI-55); format: cell membranes, MDCK, Membrane; conditions: Not Active = under 50% inhibition at 10 µM; for Ki: read-out: Ki
Sodium-dependent noradrenaline transporter, sequence (P23975 whole entry): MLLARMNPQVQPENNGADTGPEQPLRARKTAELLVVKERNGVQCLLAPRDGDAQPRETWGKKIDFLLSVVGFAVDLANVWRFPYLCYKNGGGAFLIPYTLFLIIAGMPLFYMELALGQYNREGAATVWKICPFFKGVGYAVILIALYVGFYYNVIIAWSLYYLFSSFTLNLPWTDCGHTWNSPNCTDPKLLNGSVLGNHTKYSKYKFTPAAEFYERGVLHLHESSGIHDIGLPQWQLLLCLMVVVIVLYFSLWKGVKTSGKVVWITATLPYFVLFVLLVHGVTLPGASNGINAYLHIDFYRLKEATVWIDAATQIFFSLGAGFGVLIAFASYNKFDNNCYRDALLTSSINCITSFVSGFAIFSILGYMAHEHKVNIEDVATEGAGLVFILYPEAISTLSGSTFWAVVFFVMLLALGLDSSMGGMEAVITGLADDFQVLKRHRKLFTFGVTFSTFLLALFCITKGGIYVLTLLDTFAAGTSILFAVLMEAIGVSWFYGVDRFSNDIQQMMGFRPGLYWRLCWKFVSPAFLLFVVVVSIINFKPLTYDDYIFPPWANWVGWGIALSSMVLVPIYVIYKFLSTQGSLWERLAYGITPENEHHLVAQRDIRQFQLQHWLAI

[4] = target: Receptor tyrosine-protein kinase erbB-2 (Homo sapiens, UniProt P04626); format: cell-based; conditions: insect cells;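 also: inhibition of HER2 kinase enzyme activity, measured with Poly(Glu:Tyr) as the phosphorylation substrate; in other assays of this panel Not Active means under 50% inhibition at 10 µM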
Receptor tyrosine-protein kinase erbB-2, sequence (P04626 whole entry): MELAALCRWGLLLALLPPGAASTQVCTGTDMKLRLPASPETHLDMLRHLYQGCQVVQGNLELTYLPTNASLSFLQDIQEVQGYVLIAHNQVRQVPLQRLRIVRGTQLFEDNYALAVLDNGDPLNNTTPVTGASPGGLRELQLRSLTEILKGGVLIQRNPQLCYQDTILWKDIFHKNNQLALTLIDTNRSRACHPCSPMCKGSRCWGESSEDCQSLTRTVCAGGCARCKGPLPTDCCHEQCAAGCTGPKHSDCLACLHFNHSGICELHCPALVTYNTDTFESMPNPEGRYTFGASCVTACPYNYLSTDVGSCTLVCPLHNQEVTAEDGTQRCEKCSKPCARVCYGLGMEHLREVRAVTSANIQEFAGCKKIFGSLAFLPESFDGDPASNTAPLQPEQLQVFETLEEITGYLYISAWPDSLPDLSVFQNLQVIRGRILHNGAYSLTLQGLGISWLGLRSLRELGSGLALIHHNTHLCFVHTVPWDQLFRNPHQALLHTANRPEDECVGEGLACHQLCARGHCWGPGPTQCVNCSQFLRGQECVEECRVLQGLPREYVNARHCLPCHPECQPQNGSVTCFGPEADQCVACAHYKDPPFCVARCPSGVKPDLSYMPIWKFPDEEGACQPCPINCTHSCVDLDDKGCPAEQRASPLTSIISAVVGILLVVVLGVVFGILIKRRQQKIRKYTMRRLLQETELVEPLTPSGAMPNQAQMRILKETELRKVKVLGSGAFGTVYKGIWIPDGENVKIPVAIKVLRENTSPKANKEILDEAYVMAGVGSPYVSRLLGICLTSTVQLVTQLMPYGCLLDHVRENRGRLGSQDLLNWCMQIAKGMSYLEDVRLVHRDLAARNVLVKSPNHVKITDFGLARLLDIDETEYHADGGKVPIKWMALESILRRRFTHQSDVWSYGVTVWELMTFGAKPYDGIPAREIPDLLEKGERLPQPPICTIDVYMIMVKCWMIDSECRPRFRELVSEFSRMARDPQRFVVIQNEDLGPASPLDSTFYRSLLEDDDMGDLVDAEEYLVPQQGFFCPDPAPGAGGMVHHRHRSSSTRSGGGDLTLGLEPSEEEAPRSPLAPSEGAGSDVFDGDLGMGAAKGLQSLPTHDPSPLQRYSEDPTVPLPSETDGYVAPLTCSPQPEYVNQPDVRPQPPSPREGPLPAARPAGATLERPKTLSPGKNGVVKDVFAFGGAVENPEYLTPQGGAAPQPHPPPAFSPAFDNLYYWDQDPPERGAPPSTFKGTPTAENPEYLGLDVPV

[5] = target: Aldo-keto reductase family 1 member B1 (Rattus norvegicus, UniProt P07943); assay: biochemical; format: tissue-based, Lens of camera-type eye;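 also: inhibition of aldose reductase enzyme activity, measured with DL-glyceraldehyde as the substrate; in other assays of this panel Not Active means under 50% inhibition at 10 µM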
Cytochrome P450 2A6 = target: T3, Cytochrome P450 2A6 (Homo sapiens, UniProt P11509); conditions: bti-tn-5b1-4; also: in other assays of this panel Not Active means under 50% inhibition at 10 µM
T3 sequence (P11509 whole entry): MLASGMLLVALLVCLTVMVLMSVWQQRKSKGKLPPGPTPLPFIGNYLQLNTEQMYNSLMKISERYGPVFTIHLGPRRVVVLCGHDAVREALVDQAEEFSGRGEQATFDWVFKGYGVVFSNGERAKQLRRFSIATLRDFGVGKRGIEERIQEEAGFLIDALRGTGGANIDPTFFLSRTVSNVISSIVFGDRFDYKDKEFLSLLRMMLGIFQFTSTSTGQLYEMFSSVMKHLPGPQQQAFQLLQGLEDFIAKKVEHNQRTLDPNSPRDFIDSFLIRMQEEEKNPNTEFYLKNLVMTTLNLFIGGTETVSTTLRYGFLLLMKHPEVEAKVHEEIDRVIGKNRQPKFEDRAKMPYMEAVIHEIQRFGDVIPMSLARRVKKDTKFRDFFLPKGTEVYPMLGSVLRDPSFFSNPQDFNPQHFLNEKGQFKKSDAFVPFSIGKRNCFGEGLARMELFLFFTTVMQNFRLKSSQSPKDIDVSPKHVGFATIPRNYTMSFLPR

[6] = target: Sigma non-opioid intracellular receptor 1 (Homo sapiens, UniProt Q99720); assay: DRUGMATRIX: Sigma1 radioligand binding (ligand: [3H] Haloperidol); format: cell membranes, Jurkat, Membrane; conditions: Not Active = under 50% inhibition at 10 µM
Sigma non-opioid intracellular receptor 1, sequence (Q99720 whole entry): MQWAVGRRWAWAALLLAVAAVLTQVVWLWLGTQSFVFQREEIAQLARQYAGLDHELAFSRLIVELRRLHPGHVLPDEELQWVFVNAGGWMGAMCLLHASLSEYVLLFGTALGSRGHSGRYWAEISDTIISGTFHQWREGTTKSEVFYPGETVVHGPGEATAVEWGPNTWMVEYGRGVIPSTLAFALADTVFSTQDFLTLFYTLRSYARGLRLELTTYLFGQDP

Row | SMILES | IC50 ([1]; bti-tn-5b1-4) | IC50 [2] | IC50 ([3]; mdck) | IC50 [4] | IC50 [5] | IC50 (Cytochrome P450 2A6) | Ki (Cytochrome P450 2A6) | IC50 ([6]; jurkat) | IC50 ([1]; read-out: IC50) | IC50 ([3]; read-out: IC50) | Ki [3] | IC50 ([6]; read-out: IC50) | Ki ([6]; read-out: Ki) | IC50 ([5]; read-out: IC50)
1 | C[C@H]1C[C@H]2[C@@H]3CCC4=CC(=O)C=C[C@]4(C)[C@@]3(F)[C@@H](O)C[C@]2(C)[C@@]1(O)C(=O)CO [BETAMETHASONE] | Not Active | Not Active | Not Active | Not Active | Not Active | Not Active | Not Active | Not Active |  |  |  |  |  | 
2 | CC(C)NCC(O)COc1ccc(CC(N)=O)cc1 (stereo unspecified) [ATENOLOL] | Not Active | Not Active | Not Active | Not Active | Not Active | Not Active | Not Active | Not Active |  |  |  |  |  | 
3 | O=C1c2ccccc2C(=O)C1c1ccccc1 [PHENINDIONE] | Not Active | Not Active | Not Active | Not Active | Not Active | Not Active | Not Active | Not Active |  |  |  |  |  | 
4 | CCCCCCNC(=O)n1cc(F)c(=O)[nH]c1=O [CARMOFUR] | Not Active | Not Active | Not Active | Not Active | Not Active | Not Active | Not Active | Not Active |  |  |  |  |  | 
5 | O=c1[nH]cnc2c1ncn2[C@H]1CC[C@@H](CO)O1 [DIDANOSINE] | Not Active | Not Active | Not Active | Not Active | Not Active | Not Active | Not Active | Not Active |  |  |  |  |  | 
6 | CC(=O)Nc1ccc2c(c1)Cc1ccccc1-2 [2-ACETYLAMINOFLUORENE] |  | Not Active |  | Not Active | Not Active | Not Active | Not Active | Not Active | 0.059 µM | 8.59 µM | 8.52 µM |  |  | 
7 | CC(C)(c1ccc(O)cc1)c1ccc(O)cc1 [BISPHENOL A] | Not Active | Not Active |  | Not Active | Not Active | Not Active | Not Active | Not Active |  | 16.6 µM | 16.5 µM |  |  | 
8 | CO[C@H]1O[C@@H]2O[C@@]3(C)CC[C@H]4[C@H](C)CC[C@@H]([C@H]1C)[C@@]24OO3 | Not Active | Not Active | Not Active | Not Active | Not Active | Not Active | Not Active | Not Active |  |  |  |  |  | 
9 | C#C[C@]1(O)CC[C@H]2[C@@H]3CCC4=CC(=O)CC[C@@H]4[C@H]3CC[C@@]21C [NORETHINDRONE] | Not Active | Not Active | Not Active | Not Active | Not Active | Not Active | Not Active | Not Active |  |  |  |  |  | 
10 | CN(Cc1cc(Br)cc(Br)c1N)C1CCCCC1 [BROMHEXINE] | Not Active | Not Active | Not Active | Not Active | Not Active | Not Active | Not Active |  |  |  |  | 0.061 µM | 0.025 µM | 
11 | CC12CCC(CC1=O)C2(C)C (stereo unspecified) [CAMPHOR] | Not Active | Not Active | Not Active | Not Active | Not Active | Not Active | Not Active | Not Active |  |  |  |  |  | 
12 | C[C@@H]1[C@H](O)[C@@H](C)/C=C/C=C/C=C/C=C/C=C/C=C/C=C/[C@H](O[C@@H]2O[C@H](C)[C@@H](O)[C@H](N)[C@@H]2O)C[C@@H]2O[C@](O)(C[C@@H](O)C[C@@H](O)[C@H](O)CC[C@@H](O)C[C@@H](O)CC(=O)O[C@H]1C)C[C@H](O)[C@H]2C(=O)O [AMPHOTERICIN B] | Not Active | Not Active | Not Active | Not Active | Not Active | Not Active | Not Active | Not Active |  |  |  |  |  | 
13 | Nc1ccc(Cc2ccc(N)cc2)cc1 | Not Active | Not Active | Not Active | Not Active | Not Active | Not Active | Not Active | Not Active |  |  |  |  |  | 
14 | CCN(CCO)CCCC(C)Nc1ccnc2cc(Cl)ccc12 (stereo unspecified) [HYDROXYCHLOROQUINE] | Not Active | Not Active | Not Active | Not Active | Not Active | Not Active | Not Active | Not Active |  |  |  |  |  | 
15 | O=C(O)COC(=O)Cc1ccccc1Nc1c(Cl)cccc1Cl [ACECLOFENAC] | Not Active | Not Active | Not Active | Not Active |  | Not Active | Not Active | Not Active |  |  |  |  |  | 1.29 µM
16 | O=C(O)CCc1nc(-c2ccccc2)c(-c2ccccc2)o1 [OXAPROZIN] | Not Active | Not Active | Not Active | Not Active | Not Active | Not Active | Not Active | Not Active |  |  |  |  |  | 
17 | C=CCN1CC[C@]23c4c5ccc(O)c4O[C@H]2/C(=N/N=C2\CC[C@@]4(O)[C@H]6Cc7ccc(O)c8c7[C@@]4(CCN6CC=C)[C@H]2O8)CC[C@@]3(O)[C@H]1C5 [NALOXONAZINE] | Not Active | Not Active | Not Active | Not Active | Not Active | Not Active | Not Active | Not Active |  |  |  |  |  | 
18 | O=C(O)CO [GLYCOLIC ACID] | Not Active | Not Active | Not Active | Not Active | Not Active | Not Active | Not Active | Not Active |  |  |  |  |  | 
19 | COC(=O)Nc1nc2ccc(Sc3ccccc3)cc2[nH]1 [FENBENDAZOLE] | Not Active | Not Active | Not Active | Not Active | Not Active | Not Active | Not Active | Not Active |  |  |  |  |  | 
20 | CC12CCC(CC1)C(C)(C)O2 [EUCALYPTOL] | Not Active | Not Active | Not Active | Not Active | Not Active | Not Active | Not Active | Not Active |  |  |  |  |  | 
21 | O=C(Nc1ccc(Cl)c(Cl)c1)c1cc(Cl)cc(Cl)c1O [3,3',4',5-TETRACHLOROSALICYLANILIDE] | Not Active | Not Active | Not Active | Not Active | Not Active | Not Active | Not Active | Not Active |  |  |  |  |  | 
22 | Cc1ccnc2c1NC(=O)c1cccnc1N2C1CC1 [NEVIRAPINE] | Not Active | Not Active | Not Active | Not Active | Not Active | Not Active | Not Active | Not Active |  |  |  |  |  | 
23 | O=C1CN(/N=C/c2ccc([N+](=O)[O-])o2)C(=O)N1 [NITROFURANTOIN] | Not Active | Not Active | Not Active | Not Active | Not Active | Not Active | Not Active | Not Active |  |  |  |  |  | 
24 | O=c1[nH]c2ccccc2c2ccccc12 | Not Active | Not Active | Not Active | Not Active | Not Active | Not Active | Not Active | Not Active |  |  |  |  |  | 
25 | O=C(O)CNCP(=O)(O)O [GLYPHOSATE] | Not Active | Not Active | Not Active | Not Active | Not Active |  |  | Not Active |  |  |  |  |  | 
